Data taken from patent US4727062A, “3-Halovinylglycine antibacterial agents” (Merck & Co., Inc., priority 1986, dated 1988).
In brackets after ≈: the same amount, converted by molar mass.

Key:
E. coli DC2 = assay: Agar dilution assay, M.I.C.; type: cell-based
Protocol: (§1) Representative 3-halovinylglycines and amino acid conjugates were tested for antibacterial activity by an agar dilution assay [being an modification of the antagonist-free-medium assay described in: Antimicrobial Agents and Chemotherapy, May 1979, pp 677-683 and pp 684-695]. Compounds asayed include (L) and (D)-3-chlorovinylglycine (HCL salts), (L) norvalyl-(L), (D), and (DL)-3-chlorovinylglycine (CF3 COOH salts), and (L) norvalyl-(L), (D), and (DL)-3 fluorovinylglycine (CF3 COOH) salts.
(§2) The antibacterial activity of the representative structure I compounds versus eleven representative strains of pathogenic bacteria is shown in the following Table.
(§3) Agar Dilution Asay [minimum inhibitory concentration (M.I.C.)-mg/ml]

E. coli TEM 2^+ = assay: Agar dilution assay, M.I.C.; type: cell-based
Protocol: as §1, §2, §3

E. coli = assay: Agar dilution assay, M.I.C.; type: cell-based
Protocol: as §1, §2, §3

K. pneumoniae = assay: Agar dilution assay, M.I.C.; type: cell-based; conditions: for minimum inhibitory concentration (M.I.C.): agar dilution, K. pneumoniae
Protocol: as §1, §2, §3

Prot. vulgaris = assay: Agar dilution assay, M.I.C.; type: cell-based
Protocol: as §1, §2, §3

Ps. aeruginosa = assay: Agar dilution assay, M.I.C.; type: cell-based
Protocol: as §1, §2, §3

S. aureus = assay: Agar dilution assay, M.I.C.; type: cell-based; conditions: for minimum inhibitory concentration (M.I.C.): agar dilution, S. aureus
Protocol: as §1, §2, §3

Sal. typhimurium = assay: Agar dilution assay, M.I.C.; type: cell-based
Protocol: as §1, §2, §3

Ser. marcescens = assay: Agar dilution assay, M.I.C.; type: cell-based
Protocol: as §1, §2, §3

Strep. faecalis = assay: Agar dilution assay, M.I.C.; type: cell-based
Protocol: as §1, §2, §3

cystathionine synthetase = conditions: synthesis of cystathionine from serine; cited from earlier work
Ent. cloacae P99^- = assay: Agar dilution assay, M.I.C.; type: cell-based
Protocol: as §1, §2, §3

[1] = tested on: eleven representative strains of pathogenic bacteria; assay: Agar dilution assay, panel of eleven strains; type: cell-based; conditions: for number of test species against which activity is shown: M.I.C. equal to or less than 256 indicates antibacterial activity
Protocol: as §1, §2

With `C=C(Cl)C(NC(=O)[C@@H](N)CCC)C(=O)O` (mixture of isomers) [(L)-NVA-(DL)-Cl-vinylgly, L-norvalyl-D,L-3-chlorovinylglycine] the “minimum inhibitory concentration (M.I.C.)” value (E. coli DC2) was 4 mg/mL, the “minimum inhibitory concentration (M.I.C.)” value (E. coli TEM 2^+) was over 256 mg/mL and the “minimum inhibitory concentration (M.I.C.)” value (E. coli) was 128 mg/mL. The “minimum inhibitory concentration (M.I.C.)” value (K. pneumoniae) was 32 mg/mL, the “minimum inhibitory concentration (M.I.C.)” value (Prot. vulgaris) was 256 mg/mL and the “minimum inhibitory concentration (M.I.C.)” value (Ps. aeruginosa) was over 256 mg/mL. The “minimum inhibitory concentration (M.I.C.)” value (S. aureus) was at most 0.25 mg/mL, the “minimum inhibitory concentration (M.I.C.)” value (Sal. typhimurium) was 256 mg/mL and the “minimum inhibitory concentration (M.I.C.)” value (Ser. marcescens) was over 256 mg/mL. For the same molecule, the “minimum inhibitory concentration (M.I.C.)” value (Strep. faecalis) was 4 mg/mL.
For `C=C(Cl)C(N)C(=O)O` (racemic) [racemic 3-chlorovinylglycine, 2-amino-3-chloro-3-butenoic acid], the “inactivation of cystathionine synthetase (in words)” value (cystathionine synthetase) is listed as “not being an inactivator”.
In the case of `CCC[C@H](N)C(=O)N[C@H](C=CCl)C(=O)O` [(L)-NVA-(D)-Cl-vinylgly, L-norvalyl-D-3-chlorovinylglycine], the “minimum inhibitory concentration (M.I.C.)” value (E. coli DC2) is reported as 32 mg/mL (≈ 136 mM), the “minimum inhibitory concentration (M.I.C.)” value (E. coli TEM 2^+) is reported as 256 mg/mL (≈ 1090 mM) and the “minimum inhibitory concentration (M.I.C.)” value (E. coli) is reported as over 256 mg/mL. For the same molecule, the “minimum inhibitory concentration (M.I.C.)” value (K. pneumoniae) was 64 mg/mL (≈ 273 mM), the “minimum inhibitory concentration (M.I.C.)” value (Prot. vulgaris) was over 256 mg/mL and the “minimum inhibitory concentration (M.I.C.)” value (Ps. aeruginosa) was over 256 mg/mL. The “minimum inhibitory concentration (M.I.C.)” value (S. aureus) was 16 mg/mL (≈ 68.2 mM) and the “minimum inhibitory concentration (M.I.C.)” value (Strep. faecalis) was 128 mg/mL (≈ 545 mM).
For `C=C(F)[C@@H](NC(=O)[C@@H](N)CCC)C(=O)O.O=C(O)C(F)(F)F` [(L)-NVA-(D)-F-vinylgly, (L,D)-Norvalyl-3-fluorovinylglycine trifluoroacetate], the “minimum inhibitory concentration (M.I.C.)” value (E. coli DC2) was over 256 mg/mL, the “minimum inhibitory concentration (M.I.C.)” value (E. coli TEM 2^+) was over 256 mg/mL and the “minimum inhibitory concentration (M.I.C.)” value (E. coli) was over 256 mg/mL. The “minimum inhibitory concentration (M.I.C.)” value (K. pneumoniae) was over 256 mg/mL, the “minimum inhibitory concentration (M.I.C.)” value (Prot. vulgaris) was over 256 mg/mL and the “minimum inhibitory concentration (M.I.C.)” value (Ps. aeruginosa) was over 256 mg/mL. For the same molecule, the “minimum inhibitory concentration (M.I.C.)” value (S. aureus) was over 256 mg/mL, the “minimum inhibitory concentration (M.I.C.)” value (Sal. typhimurium) was over 256 mg/mL and the “minimum inhibitory concentration (M.I.C.)” value (Ser. marcescens) was over 256 mg/mL. For the same molecule, the “minimum inhibitory concentration (M.I.C.)” value (Strep. faecalis) was over 256 mg/mL.
With `C=C(F)C(NC(=O)[C@@H](N)CCC)C(=O)O` (stereo partly drawn) [(L)-NVA-(DL)-F-vinylgly, (L,DL)-Norvalyl-3-fluorovinylglycine trifluoracetate] the “minimum inhibitory concentration (M.I.C.)” value (E. coli DC2) was 4 mg/mL (≈ 18.3 mM), the “minimum inhibitory concentration (M.I.C.)” value (E. coli TEM 2^+) was 128 mg/mL (≈ 587 mM) and the “minimum inhibitory concentration (M.I.C.)” value (E. coli) was 8 mg/mL (≈ 36.7 mM). For the same molecule, the “minimum inhibitory concentration (M.I.C.)” value (Ent. cloacae P99^-) was 64 mg/mL (≈ 293 mM), the “minimum inhibitory concentration (M.I.C.)” value (K. pneumoniae) was 128 mg/mL (≈ 587 mM) and the “minimum inhibitory concentration (M.I.C.)” value (Prot. vulgaris) was over 256 mg/mL. For the same molecule, the “minimum inhibitory concentration (M.I.C.)” value (Ps. aeruginosa) was over 256 mg/mL, the “minimum inhibitory concentration (M.I.C.)” value (S. aureus) was 1.0 mg/mL (≈ 4.58 mM) and the “minimum inhibitory concentration (M.I.C.)” value (Sal. typhimurium) was 256 mg/mL (≈ 1170 mM). The “minimum inhibitory concentration (M.I.C.)” value (Ser. marcescens) was 256 mg/mL (≈ 1170 mM) and the “minimum inhibitory concentration (M.I.C.)” value (Strep. faecalis) was over 256 mg/mL.
With `C=C(Cl)[C@H](NC(=O)[C@@H](N)CCC)C(=O)O.O=C(O)C(F)(F)F` [(L)-NVA-(L)-Cl-vinylgly, (L,L)-Norvalyl 3-chlorovinylglycine trifluoroacetate] the “minimum inhibitory concentration (M.I.C.)” value (E. coli DC2) was 1 mg/mL, the “minimum inhibitory concentration (M.I.C.)” value (E. coli TEM 2^+) was 8 mg/mL and the “minimum inhibitory concentration (M.I.C.)” value (E. coli) was 32 mg/mL. The “minimum inhibitory concentration (M.I.C.)” value (K. pneumoniae) was 2 mg/mL, the “minimum inhibitory concentration (M.I.C.)” value (Prot. vulgaris) was 256 mg/mL and the “minimum inhibitory concentration (M.I.C.)” value (Ps. aeruginosa) was over 256 mg/mL. For the same molecule, the “minimum inhibitory concentration (M.I.C.)” value (S. aureus) was 0.5 mg/mL, the “minimum inhibitory concentration (M.I.C.)” value (Sal. typhimurium) was 64 mg/mL and the “minimum inhibitory concentration (M.I.C.)” value (Ser. marcescens) was over 256 mg/mL. The “minimum inhibitory concentration (M.I.C.)” value (Strep. faecalis) was 4 mg/mL and the “number of test species against which activity is shown” value [1] was 8 of 11.
For `C=C(F)[C@H](NC(=O)[C@@H](N)CCC)C(=O)O.O=C(O)C(F)(F)F` [(L)-NVA-(L)-F-vinylgly, (L,L)-Norvalyl-3-fluorovinylglycine trifluoroacetate], the “minimum inhibitory concentration (M.I.C.)” value (E. coli DC2) was 2 mg/mL, the “minimum inhibitory concentration (M.I.C.)” value (E. coli TEM 2^+) was 16 mg/mL and the “minimum inhibitory concentration (M.I.C.)” value (E. coli) was 4 mg/mL. The “minimum inhibitory concentration (M.I.C.)” value (Ent. cloacae P99^-) was 32 mg/mL, the “minimum inhibitory concentration (M.I.C.)” value (K. pneumoniae) was 2 mg/mL and the “minimum inhibitory concentration (M.I.C.)” value (Prot. vulgaris) was 32 mg/mL. The “minimum inhibitory concentration (M.I.C.)” value (Ps. aeruginosa) was over 256 mg/mL, the “minimum inhibitory concentration (M.I.C.)” value (S. aureus) was over 256 mg/mL and the “minimum inhibitory concentration (M.I.C.)” value (Sal. typhimurium) was 128 mg/mL. The “minimum inhibitory concentration (M.I.C.)” value (Ser. marcescens) was 64 mg/mL, the “minimum inhibitory concentration (M.I.C.)” value (Strep. faecalis) was 64 mg/mL and the “number of test species against which activity is shown” value [1] was 9 of 11. The “antibacterial activity compared with the (L,D) diastereomer” value ([1]; antibacterial agar dilution assay) was “more active”.
For `N[C@@H](C=CCl)C(=O)O` [(L)Cl vinylgly, L-3-chlorovinylglycine], the “minimum inhibitory concentration (M.I.C.)” value (E. coli TEM 2^+) was over 256 mg/mL, the “minimum inhibitory concentration (M.I.C.)” value (E. coli) was over 256 mg/mL and the “minimum inhibitory concentration (M.I.C.)” value (K. pneumoniae) was 256 mg/mL (≈ 1890 mM). For the same molecule, the “antibacterial activity (in words)” value (K. pneumoniae; vs K. pneumoniae) was “exhibits antibacterial activity”, the “minimum inhibitory concentration (M.I.C.)” value (Prot. vulgaris) was over 256 mg/mL and the “minimum inhibitory concentration (M.I.C.)” value (Ps. aeruginosa) was over 256 mg/mL. For the same molecule, the “minimum inhibitory concentration (M.I.C.)” value (S. aureus) was 128 mg/mL (≈ 944 mM), the “antibacterial activity (in words)” value (S. aureus; vs S. aureus) was “exhibits antibacterial activity” and the “minimum inhibitory concentration (M.I.C.)” value (Sal. typhimurium) was over 256 mg/mL. The “minimum inhibitory concentration (M.I.C.)” value (Ser. marcescens) was over 256 mg/mL.
